Where only a bound is given, the exact number is not on record here.

For assay [1], the system named is psoriasis tissue model (SOR-300-FT). Kind of assay: Tissue structure (H&E histology) of psoriasis tissue model. In kind it is cell-based, human. The source says:
(§1) The psoriasis tissue model (SOR-300-FT; MatTek Corp., Ashland, Mass.) is a highly differentiated in vitro psoriatic tissue comprised of normal, human-derived keratinocytes and psoriatic fibroblasts which have been cultured to form a highly differentiated model of psoriatic tissue. Morphologically, the psoriatic tissue is of uniform thickness and is very similar to native psoriatic tissue in that it expresses increased levels of Ki67+ cells (hyperproliferation) and psoriasis-associated proteins such as psoriasin, elafin and human beta-defensin-2 (HBD-2) (Am. J. Pathol. 173:815-23, 2008). SOR-300-FT tissues (surface area=0.6 cm^2) were cultured on microporous membrane (pore size=0.4 μm) cell culture inserts. All psoriatic tissues were grown at the air liquid interface (ALI) in which the apical tissue layer is exposed to air. Use of the ALI induces the tissues to attain skin-like differentiation and allows direct topical application of test materials (similar to in vivo exposure).
(§2) Calcipotriol at 2.5, 0.25 and 0.025 μg/ml in medium was used as positive control. Ultrapure water was used as the vehicle control. The test article Compound C was applied to the basolateral (by additions to the culture medium) and apical (50 μl) side of the tissues. The effect of each three concentrations of the test article on tissue structure was examined using H&E stained histological slides. For gene analysis, RNA was isolated using standard RNA isolation protocol (MatTek Corporation). Isolated RNA was quantified and the integrity of the isolated RNA was checked. Quantitative RT-PCR was performed to determine expression levels of 5 psoriatic associated genes (elafin, HBD-2, psoriasin, p63, and Ki67).
(§3) SOR-300-FT™ tissues were transferred to 6-well plates containing 0.9 ml of pre-warmed assay medium and equilibrated to standard culture conditions (37° C., 5% CO2) for 1 hour. After the 1 hr equilibration, the tissues were re-fed with fresh medium as follow: 1) for the 24 hr time point, tissues were feed with 0.9 ml of medium and 2) for time points >24 hr, tissues were fed with 5 ml of culture medium by placing the cell culture inserts on top of the washers (Part # EPI-WSHR, MatTek Corporation). Next, 50 μl of the test article was applied topically to the psoriatic tissues (n=3) and the test article was added to the culture medium at concentrations of 100 μM, 30 μM, and 5 μM. At times 48 and 72 hours: a) the tissues were rinsed topically 3× with 300-400 μL of PBS, b) the inserts containing the tissues were held tightly with sterile forceps and the test article was rinsed gently by immersing the insert into PBS and decant medium from insert and c) fresh test article was re-applied to the tissue immediately after rinsing and decanting (50 μl, topically). Analysis was performed at t=48 hr (2× repeat applications) and t=96 hr (4× applications).
(§4) After t=48 (2× repeat exposure) and t=96 hr (4× exposure), N=3 tissues/treatment were used for RNA isolation for biomarker identification (gene expression levels). After the t=48 and t=96 hr, N=1 tissue/treatment was fixed in 10% formalin for histological analysis.
Microscopic observations of histology samples were performed and effect of treatment on tissue morphology such as apical surface disruption, structural changes, and abnormal tissue staining was assessed.

The test system of the next assay is elafin gene expression. As to the kind of experiment: qPCR elafin gene expression in psoriatic tissue model. It is filed as cell-based, human.
Excerpt: as §1, §2, §3, §4
(§5) RNA Isolation: RNA was isolated from the tissues following MatTek's standardized RNA isolation protocol. The concentration, integrity, and purity of RNA was assessed using Experion System (Bio-Rad).
(§6) qPCR: cDNA was generated using the RT2 First Strand Kit (Qiagen, cat#330401). Relative gene expression was measured using RT2 SYBR Green qPCR Mastermix (Qiagen, cat#330502) and Qiagen RT2 primers. Analysis was carried out using Bio-Rad CFX software.
(§7) qPCR was performed to quantify the relative gene expression levels of 5 psoriatic associated gene biomarkers: 1) human beta defensin 2 (HBD-2), 2) psoriasin, 3) elafin and 4) p63, and 5) Ki67.
In general terms: Quantitative PCR measures a nucleic acid by following its amplification.

Assay [2] deals with human beta defensin 2 (HBD-2) gene expression. As to the kind of experiment: qPCR HBD-2 gene expression in psoriatic tissue model. In kind it is cell-based.
Excerpt: as §1, §2, §3, §4, §5, §6, §7

The subject of assay [3] is psoriasin gene expression. Kind of assay: qPCR psoriasin gene expression in psoriatic tissue model. In kind it is cell-based, human.
Excerpt: as §1, §2, §3, §4, §5, §6, §7

The subject of a further assay is p63 gene expression. As to the kind of experiment: qPCR p63 gene expression in psoriatic tissue model. In kind it is cell-based, human. Particulars: for Downregulation of p63 gene: 2× or 4× repeat applications.
Excerpt: as §1, §2, §3, §4, §5, §6, §7

The test system of another assay is Ki67 gene expression. As to the kind of experiment: qPCR Ki67 gene expression in psoriatic tissue model. It is filed as cell-based, human. The following applies: for Downregulation of Ki67 gene: 2× or 4× repeat applications.
Excerpt: as §1, §2
as §3, with “applications). […]” for “applications).”
as §5
qPCR: cDNA was generated using the RT2 First Strand Kit (Qiagen, cat#330401). Relative gene expression was measured using RT2 SYBR Green qPCR Mastermix (Qiagen, cat#330502) and Qiagen RT2 primers. […]
as §7

[4] abbreviates: 0.025 ug/ml, 2× repeat applications.
The mark [5] stands for this setting: 0.025 ug/ml, 4× repeat applications.
Setting [6] is: 2.5 μg/ml, 2× repeat applications.
Where [7] appears, read: 2.5 μg/ml, 4× repeat applications.
The mark [8] stands for this setting: 0.25 ug/ml, 2× application, 48 hr.

With `C=C1/C(=C\C=C2/CCC[C@]3(C)[C@@H]([C@H](C)/C=C/[C@@H](O)C4CC4)CC[C@@H]23)C[C@@H](O)C[C@@H]1O` [Calcipotriol, reference compound], the “Microscopic observation of tissue histology” value in assay [1] (2.5, 0.25 and 0.025 μg/ml, 2× or 4× repeat exposures) is “minimal-to-no evidence of structural damage”. Also, in the assay with elafin gene expression (setting [4]), the “Downregulation (≧2 fold) of elafin gene expression” value is listed as “not after 2× repeat applications”. In addition, the “Downregulation of elafin gene expression” value in the assay with elafin gene expression (setting [5]) and in the assay on elafin gene expression (setting [6]) was at least 2 fold in each case. Also, the “Reduction of elafin gene expression” value in the assay on elafin gene expression (setting [7]) was “significant reduction”. The “Downregulation (≧2 fold) of HBD-2 gene expression” value in assay [2] (setting [4]) was “not after 2× repeat applications”. In addition, the “Downregulation of HBD-2 gene expression” value in assay [2] (setting [5]) and in assay [2] (setting [6]) was at least 2 fold in each case. The “Downregulation of HBD2 gene expression” value in assay [2] (setting [8]) was at least 2 fold. Further, the “Reduction of HBD-2 gene expression” value in assay [2] (setting [7]) is reported as “significant reduction”. In addition, the “Downregulation (≧2 fold) of psoriasin gene expression” value in assay [3] (setting [4]) is “not after 2× repeat applications”. Further, the “Downregulation of psoriasin gene expression” value in assay [3] (setting [5]) and in assay [3] (setting [6]) was at least 2 fold each time. Besides, the “Reduction of psoriasin gene expression” value in assay [3] (setting [7]) is recorded as “significant reduction”. Further, the “Downregulation of p63 gene expression” value in the assay on p63 gene expression (setting [8]) and with p63 gene expression (setting [6]) was at least 2 fold in each case. Further, in the assay on p63 gene expression (setting [7]), the “Decrease of p63 gene expression” value is 1.7 fold. Moreover, the “Downregulation of Ki 67 gene expression” value in the assay with Ki67 gene expression (setting [6]) is on record as at least 2 fold. The “Decrease of Ki67 gene expression” value with Ki67 gene expression (setting [7]) came out at 1.6 fold.
Take `C[C@H]1[C@H]2N(C(=O)CN(C)N2C(=O)NCc2ccccc2)[C@@H](Cc2ccc(O)cc2)C(=O)N1Cc1cccc2cccnc12` [Compound C, (6S,9S,9aS)—N-benzyl-6-(4-hydroxybenzyl)-2,9-dimethyl-4,7-dioxo-8-(quinolin-8-ylmethyl)octahydro-1H-pyrazino[2,1-c][1,2,4]triazine-1-carboxamide]: the “Microscopic observation of tissue histology” value was “minimal effect on tissue structure” in assay [1] (5 μM, 2× repeat exposures); “the parabasal-apical layer of the tissue was sloughed off” in assay [1] (5 μM, 4× repeat exposures); “minor structural damage” in assay [1] (30 μM, 2× repeat exposures, 48 hr); “the suprabasal and apical layer was sloughed off” in assay [1] (30 μM, 4× exposures, 96 hr); “structural damage to the differentiated cell layer” in assay [1] (100 μM, 2× or 4× repeat exposures). In addition, the “Basal cells and tissue regeneration (histology)” value in assay [1] (5 μM, 4× repeat exposures) was “the basal cells were intact and tissue regeneration was occurring”. Moreover, the “Downregulation of elafin gene expression” value in the assay with elafin gene expression (5 μM, 4× applications, 96 hr) was at least 2 fold; in the assay on elafin gene expression (30 μM, 4× applications, 96 hr) it was at least 2 fold; with elafin gene expression (100 μM, 4× applications, 96 hr), at least 2 fold. Also, the “Reduction in elafin gene expression level” value in the assay with elafin gene expression (30 μM, 48 hr (2× applications)) is on record as 2.2 fold. Also, the “Downregulation of HBD-2 gene expression” value was at least 2 fold in assay [2] (5 μM, 4× applications, 96 hr); at least 2 fold in assay [2] (30 μM, 4× applications, 96 hr); at least 2 fold in assay [2] (100 μM, 4× applications, 96 hr). Besides, the “Downregulation of psoriasin gene expression” value in assay [3] (5 μM, 4× applications, 96 hr) is reported as at least 2 fold; in assay [3] (30 μM, 4× applications, 96 hr), at least 2 fold; in assay [3] (100 μM, 4× applications, 96 hr), at least 2 fold. The “Downregulation of p63 gene” value in the assay on p63 gene expression (5 μM) and in the assay with p63 gene expression (30 μM) was “did not show downregulation” in each case. In addition, the “Downregulation of the p63 gene” value with p63 gene expression (100 μM, 2× repeat applications) came to 1.6 fold. The “Downregulation of Ki67 gene” value with Ki67 gene expression (5 μM) and in the assay on Ki67 gene expression (30 μM) was “did not show downregulation” each time. The “Downregulation of Ki 67 gene expression” value with Ki67 gene expression (100 μM, 2× and 4× applications (FIGS. 4A-B)) was “No down regulation”.

The values above are taken from patent publication US20150283145A1, “TREATMENT OF HYPERPROLIFERATIVE AND PRE-CANCEROUS SKIN DISEASES USING AN INHIBITOR OF CBP/CATENIN” (PRISM Pharma Co., Ltd., priority 2012, published 2015).
